In patent publication US8785430B2, “Compound that can inhibit UBC13-UEV interactions, pharmaceutical compositions and therapeutic uses” (Consejo Superior de Investigaciones Cientificas, priority 2006, dated 2014):

Tests used:
[1] = test system: S. cerevisiae Δrad6 mutants; experiment: Survival of S. cerevisiae Δrad6 mutants after ultraviolet radiation or MMS; assay type: cell-based, Saccharomyces cerevisiae; conditions: 100 μM; for rescue of the rad6 phenotype generated by treatment with MMS (survival): 0.03% MMS; for rescue of the rad6 phenotype induced by UV irradiation (survival): ultraviolet radiation
Description: To determine if compounds Ia and Ib inhibit the function of Ubc13p-Mms2p, their capacity to mimic in S. cerevisiae the DNA repair phenotypes generated by the null mutation of ubc13 was evaluated. Thus, mutant strains in RAD6 or REV3 and the parent strain thereof (control) were used in viability assays after the exposure to ultraviolet radiation or MMS. The genotypes of the strains used are the following:
2) Strain Δrad6: MAT at his3Δ1 leu2Δ0 lys2Δ0 ura3Δ0 rad6::kanMX4
Cells were inoculated in liquid cultures with YPD medium overnight at 30° C., until reaching the log phase of growth. For the treatments with ultraviolet radiation, aliquots of cells, grown in the presence or absence of 100 μM of compounds Ia or Ib were irradiated in a Stratalinker instrument (Stratagene) at the energies indicated in FIGS. 7 and 8. For the treatment with the mutagenic agent MMS, aliquots of cells grown or not in medium with 100 μM of compounds Ia or Ib were incubated, 0.03% MMS being added, with subsequent incubation for the times indicated in FIGS. 7 and 8. After either treatment, 500 cells were seeded in plates with YPD medium, counting the colonies after 2 days.

[2] = test system: interaction between p53 and large T; experiment: Two-hybrid assay in yeasts, positive interaction control p53 - large T; assay type: cell-based; conditions: 100 μM
Description: Each of the 52 mixtures of peptoids was analyzed by means of this process in triplicate, in three independent experiments. The interaction between UBC13 and UEV1 in the absence of peptoids and the interaction between p53 and the SV40 large T protein were used as positive interaction controls in all these assays. The laminin and […] proteins were used as a negative control. The β-galactosidase activities for the UBC13-UEV1 interaction were standardized with respect to the β-galactosidase activities of the corresponding positive control thereof (p53-large T). The activities β-galactosidase standardized in that manner are illustrated in FIG. 2.
The effect of compounds Ia and Ib on the UBC13-UEV1 interaction in two-hybrid assays in yeasts was performed by incubating cells of the Saccharomyces cerevisiae strain AH109, grown in a selective medium, with 100 μM of either compound. The interaction of Sv40 large T and p53 proteins was used as positive interaction control. The intensity of the interactions was determined colorimetrically by means of detecting the β-galactosidase activity, using O-nitrophenyl-p-galactopyranoside (ONPG) as a substrate, each determination being performed in triplicate. […]

UBC13-UEV1 interaction = biological target: T1, UBC13-UEV1 interaction (Homo sapiens, UniProt P61088); experiment: Two-hybrid assay in yeasts for the UBC13-UEV1 interaction (β-galactosidase); assay type: cell-based; conditions: read-out: inhibition of the interaction between UBC13 and UEV1
T1 construct: expressed in transfected cells; host or cells: Saccharomyces cerevisiae strain AH109
T1 sequence (P61088 1-152): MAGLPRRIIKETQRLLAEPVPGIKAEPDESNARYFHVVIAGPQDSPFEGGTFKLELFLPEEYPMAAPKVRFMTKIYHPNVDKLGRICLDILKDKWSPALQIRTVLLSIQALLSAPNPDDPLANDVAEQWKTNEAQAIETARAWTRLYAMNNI
From the text: The interaction between UBC13 and UEV1 is detected by means of two-hybrid assays in yeast. The protein forms of UBC13 and UEV1 used in the following examples are of Homo sapiens. The UBC13 protein, also referred to as UBE2N (HUGO nomenclature) has the following identifiers: NCBI-GI: 4507793, UniProt: P61088 and [EC:6.3.2.19]. The UEV1 protein, also referred to as UBE2V1 (HUGO nomenclature), has the following identifiers: NCBI-GI: 73765546 and UniProt: {tilde under (O)}13404. In this assay, UBC13 is expressed as a fusion protein with the Gal4 DNA-binding domain (DBD-UBC13) from the plasmid pBD-UBC13, and UEV1 is expressed as a fusion protein with the Gal4 transcriptional activation domain (AD-UEV1) from the plasmid pACT2-UEV1. Both plasmids are cotransfected in the Saccharomyces cerevisiae strain AH109, being grown on plates with […] without leucine or tryptophan, selecting only the colonies expressing […] for these two amino acids, i.e., those containing the two co-transfected plasmids. […]

| SMILES | rescue of the rad6 phenotype generated by treatment with MMS (survival) [1] | rescue of the rad6 phenotype induced by UV irradiation (survival) [1] | inhibition of the control interaction between p53 and large T [2] | inhibition at 100 µM (UBC13-UEV1 interaction) [%] |
| --- | --- | --- | --- | --- |
| NC(=O)CN(CCc1ccccn1)C(=O)C1CC(=O)N(CCc2ccc(F)cc2)CC(=O)N1CCc1ccc(F)cc1 (centres unmarked) [Ia, N-aminocarbamoylmethyl-N-(2′-(2″pyridyl)ethyl)-1,4-bis[2′-(4″-fluorophenyl)ethyl]-3,7-dioxo-[1,4]diazepane-5-carboxamide] | to a lesser extent | clearly rescued the rad6 phenotype | Neither of these two compounds inhibits the interaction | ~60 |
| NC(=O)CN(CCc1ccccn1)C(=O)CC1C(=O)N(CCc2ccc(F)cc2)CC(=O)N1CCc1ccc(F)cc1 (centres unmarked) [Ib, 1,4-bis[2′-(4″-fluorophenyl)ethyl]-2-[N-aminocarbonylmethyl-N-(2′-(2″-pyridyl)ethyl)-carbonylmethyl]piperazine-3,6-dione] | to a lesser extent | clearly rescued the rad6 phenotype | Neither of these two compounds inhibits the interaction | ~40 |
